# Assay results published in patent publication US9539256B2 (THE BOARD OF REGENTS OF THE UNIVERSITY OF TEXAS SYSTEM, priority 2012, dated 2017).
# Experiments:
# [1] = biological target: T1, EPAC2 (Mus musculus, UniProt Q9EQZ6); assay: 8-NBD-cAMP competition binding to EPAC2
# T1 sequence (Q9EQZ6 1-1011): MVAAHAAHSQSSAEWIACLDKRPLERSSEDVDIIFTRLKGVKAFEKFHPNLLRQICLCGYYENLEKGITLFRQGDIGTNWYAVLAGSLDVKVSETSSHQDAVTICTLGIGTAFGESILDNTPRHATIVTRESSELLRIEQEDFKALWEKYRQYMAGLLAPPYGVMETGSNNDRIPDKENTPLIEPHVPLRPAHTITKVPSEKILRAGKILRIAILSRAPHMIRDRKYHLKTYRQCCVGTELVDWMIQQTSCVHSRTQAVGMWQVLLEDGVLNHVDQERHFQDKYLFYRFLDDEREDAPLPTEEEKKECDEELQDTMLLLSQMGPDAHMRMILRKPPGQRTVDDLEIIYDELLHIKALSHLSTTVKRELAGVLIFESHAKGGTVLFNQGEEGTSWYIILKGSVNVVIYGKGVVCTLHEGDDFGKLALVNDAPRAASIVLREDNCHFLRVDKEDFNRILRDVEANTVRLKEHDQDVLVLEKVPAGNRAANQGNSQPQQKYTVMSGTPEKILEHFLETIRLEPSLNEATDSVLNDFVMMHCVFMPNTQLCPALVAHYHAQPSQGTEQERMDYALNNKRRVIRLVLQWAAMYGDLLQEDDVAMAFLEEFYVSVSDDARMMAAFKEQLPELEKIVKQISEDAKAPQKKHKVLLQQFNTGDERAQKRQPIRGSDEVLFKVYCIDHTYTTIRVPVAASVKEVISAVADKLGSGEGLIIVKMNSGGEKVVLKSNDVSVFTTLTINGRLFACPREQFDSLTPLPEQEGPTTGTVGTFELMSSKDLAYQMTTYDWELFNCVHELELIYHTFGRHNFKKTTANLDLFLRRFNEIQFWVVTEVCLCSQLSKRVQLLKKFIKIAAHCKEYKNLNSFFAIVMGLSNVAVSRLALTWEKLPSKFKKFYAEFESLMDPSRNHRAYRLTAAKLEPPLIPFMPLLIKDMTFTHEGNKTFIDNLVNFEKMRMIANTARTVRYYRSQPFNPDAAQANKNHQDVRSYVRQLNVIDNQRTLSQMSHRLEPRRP
# Procedure: Primary screen is performed in black 96-well or 384-well microplates. As an example, 50 nM EPAC2 solution is prepared in 20 mM Tris buffer, pH 7.5, containing 150 mM NaCl, 1 mM EDTA, and 1 mM […]. […] Sample is dispensed into plate and test compounds added from 96-well mother plates. […] Fluorescence intensity signal from 8-NBD was recorded at room temperature (rt) before and after tested compounds are added using SpectaMaxM2 microplate reader (Molecular Devices, Silicon Valley, Calif., USA) with excitation/emission wavelengths set at 470/540 nm.
# [2] = biological target: T2, EPAC1 (Homo sapiens, UniProt O95398); assay: Phosphorylation of Akt in HEK293/EPAC1 cells; assay type: cell-based; details: 10 μM for 5 min before 007-AM
# T2 sequence (O95398 1-923): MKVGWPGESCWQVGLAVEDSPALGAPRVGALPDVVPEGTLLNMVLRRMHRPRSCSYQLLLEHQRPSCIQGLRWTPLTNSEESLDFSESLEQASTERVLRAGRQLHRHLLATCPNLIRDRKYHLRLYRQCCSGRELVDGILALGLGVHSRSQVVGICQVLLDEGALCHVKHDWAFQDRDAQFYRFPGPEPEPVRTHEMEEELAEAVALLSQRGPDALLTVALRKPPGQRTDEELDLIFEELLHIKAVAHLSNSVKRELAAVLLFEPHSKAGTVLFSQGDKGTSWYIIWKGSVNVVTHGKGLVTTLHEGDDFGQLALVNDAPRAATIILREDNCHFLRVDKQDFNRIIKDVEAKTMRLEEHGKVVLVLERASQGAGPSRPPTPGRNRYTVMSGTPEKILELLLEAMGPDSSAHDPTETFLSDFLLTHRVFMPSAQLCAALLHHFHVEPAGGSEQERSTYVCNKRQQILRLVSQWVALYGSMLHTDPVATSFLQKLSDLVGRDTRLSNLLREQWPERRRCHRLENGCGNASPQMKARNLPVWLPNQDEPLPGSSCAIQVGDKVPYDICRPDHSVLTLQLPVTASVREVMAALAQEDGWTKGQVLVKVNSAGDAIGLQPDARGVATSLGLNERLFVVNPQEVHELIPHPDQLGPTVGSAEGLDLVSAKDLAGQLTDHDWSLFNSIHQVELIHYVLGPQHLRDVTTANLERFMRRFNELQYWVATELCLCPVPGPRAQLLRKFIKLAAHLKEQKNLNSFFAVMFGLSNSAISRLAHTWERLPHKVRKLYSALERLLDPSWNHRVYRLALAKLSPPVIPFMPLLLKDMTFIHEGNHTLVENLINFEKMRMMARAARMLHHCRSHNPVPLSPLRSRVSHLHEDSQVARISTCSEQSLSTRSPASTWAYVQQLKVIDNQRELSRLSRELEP
# Procedure: FIG. 10. Effect of ESI-09 on EPAC-mediated PKB phosphorylation in HEK293/EPAC1, HEK293/EPAC2, and human vascular smooth muscle (hVSMC) cells. Serum-starved HEK293/EPAC1, HEK293/EPAC2, and hVSMC cells with or without pretreatment of […] ESI-09 were stimulated with 10 μM 007-AM. Cell lysates were subjected to Western blot analysis as described under “Experimental Procedures” using anti-phospho-Ser473-specific (PKB-P473) and anti-phospho-Thr308-specific (PKB-P308) PKB antibodies.
# Cellular proteins from cell lysates treated with various reagents were separated by SDS-PAGE and transferred to polyvinylidene difluoride membrane. The levels of Akt activation were probed by immuno-blotting analyses using anti-phosphate T308 PKB antibodies (1:1000) and anti-phosphate S473 PKB antibodies (1:1000). At least three independent experiments were performed for each Western blot.
# [3] = test system: CD4+CD25− (Tconv) proliferation in the presence Tregs; assay: In vitro Treg suppression assay of Tconv proliferation; assay type: cell-based, mice; details: assay repeated in the presence of ESI-09; compared with Epac1 KO outcome
# Source text: The suppressive potency of WT and Epac1 KO Tregs was examined using an in vitro assay that examines CD4+CD25− (Tconv) proliferation in the presence Tregs. Epac1 KO Tconv and WT Tconv proliferated at the same rate when cultured alone. The addition of WT Tregs suppressed the proliferation of both cell populations to the same extent, while the addition of Epac1 KO Tregs suppressed the proliferation of Epac1 KO Tconv to a much lesser degree than it did WT Tconv's.
smiles,measurement,setting,value
"CC(C)(C)c1cc(C(=O)C(C#N)=NNc2cccc(Cl)c2)no1 [ESI-09, 3-(5-Tert-Butyl-Isoxazol-3-Yl)-2-[(3-Chlorophenyl)-Hydrazono]-3-Oxo-Propionitrile]",Relative Potency (RA),"[1]; RA = IC50, cAMP/IC50, compound",3.9
same,IC50,"[1]; read-out: Apparent IC50, competing with 8-NBD-cAMP in binding EPAC2",10 ± 1.2 µM
same,EPAC1-mediated Akt phosphorylation (T308 and S473),[2],completely blocked
same,Tregs mediated suppression of Tconv,[3],the outcome was similar
